Measured values published in US5880146A, “Inhibition of IL-12-induced IFN-γ synthesis by specific bis-phenol compounds as a method of immune modulation” (Fuji ImmunoPharmaceuticals Corporation, priority 1995, dated 1999).

Tests used:
[1] = system: IL-12 induction of IFN-γ in PHA-activated human PBMC; assay: Screening assay for compounds which inhibit IL-12 induction of IFN-γ (ELISA); format: cell-based; settings: 5 μg/ml, IL-2 25 U/ml + IL-12 0.5 ng/ml, 48 hr, single test, read-out: % INH of IFNγ
Procedure: Human peripheral blood monocytes (PBMC) were obtained from commercial sources as a leukophoresis from a healthy volunteer and were purified by centrifugation on a Ficoll-Hypaque (Pharmacia) gradient (1700 rpm for 20 min). The "buffy" coat containing the PBMC was diluted with serum-free culture medium (SF-RPMI) to a volume of 50 ml and collected by centrifugation at 1500 rpm for 5 min. Cells were resuspended in cell culture medium containing 10% fetal bovine serum (RPMI-10) and phytohemaglutinin (PHA - 10 μg/ml) at a density of 5×10^6 cells/ml and were cultured for 3 days at 37° C. in a humidified CO2 incubator. The PHA-activated cells were collected by centrifugation, washed three times with an equal volume of SF-RPMI and resuspended in fresh RPMI-10 (1×10^6 cells /ml). Aliquots (100 μl) were dispensed into the wells of multiple 96-well plates to give a final cell number of 10^5 per well. Test compounds, dissolved in dimethyl sulfoxide (DMSO) at 1 mg/ml, were first diluted in culture medium to an intermediate concentration of 20 μg/ml and then were added (50 μwell) to a specific well of the plate for each compound. Stimulation medium (50 μl/well) containing 10% serum, IL-2 and IL-12 was added to final concentrations of 25 U/ml and 0.5 ng/ml, respectively. Control wells receive no IL-2 or IL-12 (negative control) or received both interleukins but no test compound (positive control). The plates were incubated for 48 hr at 37° C. in a CO2 incubator at which time aliquots (20 μl) were removed for analysis of IFN-γ concentration by ELISA. A quantitative ELISA was developed by coating 96-well plates with an mouse monoclonal antibody against human IFN-γ, 1 μg/ml in phosphate buffered saline (PBS) (Pestka Biological Laboratories), overnight at 4° C. Unbound antibody was washed off by washing three times with PBS. Non-specific antibody binding was blocked with a solution of 1% bovine serum albumin (BSA) and 1% goat serum in PBS (150 μl/well) which was incubated for 2 hr at 37° C. After washing the blocked plates four times with PBS, test samples and dilutions of the IFN-γ standard are added in a final volume of 100 μl/well. Following an overnight incubation at 4° C., the plates are washed four times with PBS, and a polyclonal rabbit antiserum against human IFN-γ (1/10000 dilution--Petska Biological Laboratories) is added. After an additional incubation for 1 hr at 37° C. and four washes with PBS, a polyclonal donkey anti-rabbit detecting antibody, conjugated to horseradish peroxidase (1/700 dilution--Petska Biological Laboratories) is added for 1 hr at 37° C. The plates are then washed four times with PBS and 100 μl of K-blue substrate E(ILISA Technologies, Neogen Corp.) is added until the color in the wells containing the standard curve is sufficiently developed, at which time 100 μl of "Red-stop" solution (ELISA Technologies) is added. The absorbance of the solution within each well of the plate is then read at 650 nm using an ELISA plate reader (Dynatech MR7000). The amount of IFN-γ is calculated by comparing the optical density of the test sample with a standard curve derived from the dilutions of the control IFN-y. The amount of IFN-γ that is induced in the presence of both IL-2 and IL-12 generally ranges from 1200-2000 pg/ml while the amount produced in the absence of IL-12 is generally less than 50 pg/ml. Experimental data are shown in Table 2 which discloses a) the percent inhibition of IFNγ production, relative to a […], when the cells have been treated with a bis-compound at a final concentration of 5 μg/ml of the listed bis-compound (%INH or IFNγ) and b) the percent of cells which are viable after the treatment with 5 μg/ml of the various bis-compounds, determined by adding MTS to the media (% Viability). MTS is a chemical chromophore that is metabolized in the mitochondria of viable cells to produce a color which increases in intensity in proportion to the numbers of viable cells. […]

[2] = Cell viability (MTS) after treatment with bis-compound; format: cell-based; settings: human, pha-activated pbmc, 5 μg/ml
Procedure: Human peripheral blood monocytes (PBMC) were obtained from commercial sources as a leukophoresis from a healthy volunteer and were purified by centrifugation on a Ficoll-Hypaque (Pharmacia) gradient (1700 rpm for 20 min). The "buffy" coat containing the PBMC was diluted with serum-free culture medium (SF-RPMI) to a volume of 50 ml and collected by centrifugation at 1500 rpm for 5 min. Cells were resuspended in cell culture medium containing 10% fetal bovine serum (RPMI-10) and phytohemaglutinin (PHA - 10 μg/ml) at a density of 5×10^6 cells/ml and were cultured for 3 days at 37° C. in a humidified CO2 incubator. The PHA-activated cells were collected by centrifugation, washed three times with an equal volume of SF-RPMI and resuspended in fresh RPMI-10 (1×10^6 cells /ml). Aliquots (100 μl) were dispensed into the wells of multiple 96-well plates to give a final cell number of 10^5 per well. Test compounds, dissolved in dimethyl sulfoxide (DMSO) at 1 mg/ml, were first diluted in culture medium to an intermediate concentration of 20 μg/ml and then were added (50 μwell) to a specific well of the plate for each compound. Stimulation medium (50 μl/well) containing 10% serum, IL-2 and IL-12 was added to final concentrations of 25 U/ml and 0.5 ng/ml, respectively. Control wells receive no IL-2 or IL-12 (negative control) or received both interleukins but no test compound (positive control). The plates were incubated for 48 hr at 37° C. in a CO2 incubator at which time aliquots (20 μl) were removed for analysis of IFN-γ concentration by ELISA. A quantitative ELISA was developed by coating 96-well plates with an mouse monoclonal antibody against human IFN-γ, 1 μg/ml in phosphate buffered saline (PBS) (Pestka Biological Laboratories), overnight at 4° C. Unbound antibody was washed off by washing three times with PBS. Non-specific antibody binding was blocked with a solution of 1% bovine serum albumin (BSA) and 1% goat serum in PBS (150 μl/well) which was incubated for 2 hr at 37° C. After washing the blocked plates four times with PBS, test samples and dilutions of the IFN-γ standard are added in a final volume of 100 μl/well. Following an overnight incubation at 4° C., the plates are washed four times with PBS, and a polyclonal rabbit antiserum against human IFN-γ (1/10000 dilution--Petska Biological Laboratories) is added. After an additional incubation for 1 hr at 37° C. and four washes with PBS, a polyclonal donkey anti-rabbit detecting antibody, conjugated to horseradish peroxidase (1/700 dilution--Petska Biological Laboratories) is added for 1 hr at 37° C. The plates are then washed four times with PBS and 100 μl of K-blue substrate E(ILISA Technologies, Neogen Corp.) is added until the color in the wells containing the standard curve is sufficiently developed, at which time 100 μl of "Red-stop" solution (ELISA Technologies) is added. The absorbance of the solution within each well of the plate is then read at 650 nm using an ELISA plate reader (Dynatech MR7000). The amount of IFN-γ is calculated by comparing the optical density of the test sample with a standard curve derived from the dilutions of the control IFN-y. […] MTS is a chemical chromophore that is metabolized in the mitochondria of viable cells to produce a color which increases in intensity in proportion to the numbers of viable cells. The absorbance of the cell culture can be compared to control cultures in order to determine the percent viability.

[3] = Toxicity of bis-compounds after single systemic dose; format: in vivo; settings: mouse, in vivo, 16% cremaphor, conc. sol. 10 mg/ml, single dose
mice = assay: as above; format: in vivo; settings: 16% cremaphor, 10 mg/ml

## Cc1cc(C(C)c2cc(C)c(O)c(C(C)(C)C)c2)cc(C(C)(C)C)c1O [Compound 54054]
[1]
  inhibition at 5 µg/mL: 98%
[2]
  viability: 27%

## CCCC(CCC)(c1ccc(O)cc1)c1ccc(O)c(C)c1 [Compound 54099]
[2]
  viability: 93%

## CCC(c1cc(C)c(O)c(C(C)C)c1)c1cc(C)c(O)c(C(C)C)c1 [Compound 54109]
[1]
  inhibition at 5 µg/mL: 93%
[2]
  viability: 33%

## CCCC(c1cc(C)c(O)c(C)c1)c1cc(C)c(O)c(C)c1 [Compound 54044]
[1]
  inhibition at 5 µg/mL: 98%
[3]; iv, 20% DMSO
  LD50: > 150 mg/kg
mice; 100 mg/kg IV, 20% DMSO
  Results (Dead/Alive): Alive
mice; 150 mg/kg IV, 20% DMSO
  Results (Dead/Alive): Alive
[2]
  viability: 92%

## CCCC(c1cc(C)cc(C)c1O)c1cc(C)cc(C)c1O [Compound 51851]
[1]
  inhibition at 5 µg/mL: 86%
[2]
  viability: 107%

## CCCCCC(c1cc(C)cc(C(C)(C)C)c1O)c1cc(C)cc(C(C)(C)C)c1O [Compound 54018]
[1]
  inhibition at 5 µg/mL: 55%
[3]; IV, 20% EGME
  LD50: < 100 mg/kg
mice; 100 mg/kg IV, 20% EGME
  Results (Dead/Alive): Dead
mice; 150 mg/kg IV, 20% EGME
  Results (Dead/Alive): Dead
[2]
  viability: 92%

## CCC(c1cc(C)c(O)c(C)c1)c1cc(C)c(O)c(C)c1 [Compound 54471]
[1]
  inhibition at 5 µg/mL: 89%
[2]
  viability: 83%

## Cc1cc(C(c2ccc([N+](=O)[O-])cc2)c2cc(C)c(O)c(C(C)(C)C)c2)cc(C(C)(C)C)c1O [Compound 54053]
[1]
  inhibition at 5 µg/mL: 93%
[2]
  viability: 33%

## CC(C)(C)CC(C)(C)c1cc2c(cc1O)C(C)(C)c1cc(O)c(C(C)(C)CC(C)(C)C)cc1O2 [Compound 53437]
[1]
  inhibition at 5 µg/mL: 74%
[2]
  viability: 85%

## CCC(c1cc(C)c(O)c(C(C)(C)C)c1)c1cc(C)c(O)c(C(C)(C)C)c1 [Compound 54472]
[1]
  inhibition at 5 µg/mL: 98%
[2]
  viability: 26%

## CC(C)(C)c1cc(C(c2ccc(C(=O)O)cc2)c2cc(C(C)(C)C)c(O)c(C(C)(C)C)c2)cc(C(C)(C)C)c1O [Compound 54055]
[1]
  inhibition at 5 µg/mL: 83%
[2]
  viability: 88%

## Cc1cc(Cl)cc(Cc2cc(Cl)cc(C)c2O)c1O [Compound 8296]
[1]
  inhibition at 5 µg/mL: 103%
[2]
  viability: 37%

## CCC(c1cc(C)cc(C(C)(C)C)c1O)c1cc(C)cc(C(C)(C)C)c1O [Compound 54008]
[1]
  inhibition at 5 µg/mL: 91%
[2]
  viability: 69%

## Cc1cc(C(C)(C)c2cc(C)c(O)c(C)c2)cc(C)c1O [Compound 54046]
[3]; IV, 20% DMSO
  LD50: > 150 mg/kg
mice; 100 mg/kg IV, 20% DMSO
  Results (Dead/Alive): Alive
mice; 150 mg/kg IV, 20% DMSO
  Results (Dead/Alive): Alive
[2]
  viability: 95%

## Cc1cc(C(C)c2cc(C)cc(C(C)(C)C)c2O)c(O)c(C(C)(C)C)c1 [Compound 54005]
[1]
  inhibition at 5 µg/mL: 96%
[2]
  viability: 30%

## CCCCCCC(C)(c1ccc(O)cc1)c1ccc(O)c(C)c1 (stereo not shown) [Compound 54059]
[1]
  inhibition at 5 µg/mL: 64%
[2]
  viability: 88%

## Cc1cc(C(c2ccc(C(=O)O)cc2)c2cc(C)c(O)c(C)c2)cc(C)c1O [Compound 54050]
[1]
  inhibition at 5 µg/mL: 63%
[2]
  viability: 86%

## Cc1cc(C(c2cc(C)c(O)c(C)c2)c2ccc(O)c(O)c2)cc(C)c1O [Compound 54004]
[1]
  inhibition at 5 µg/mL: -37%
[2]
  viability: 99%

## CCCCCCC(C)(c1ccc(O)c(C)c1)c1ccc(O)c(C)c1 [Compound 54094]
[2]
  viability: 25%

## Cc1cc(C(c2ccc(C(=O)O)cc2)c2cc(C)c(O)c(C(C)(C)C)c2)cc(C(C)(C)C)c1O [Compound 54346]
[1]
  inhibition at 5 µg/mL: 91%
[2]
  viability: 84%

## Cc1cc(C(c2ccccc2)c2cc(C)c(O)c(C(C)(C)C)c2)cc(C(C)(C)C)c1O [Compound 54058]
[1]
  inhibition at 5 µg/mL: 88%
[2]
  viability: 86%

## CCCC(C)(c1ccc(O)cc1)c1ccc(O)c(C)c1 (stereo not shown) [Compound 54063]
[2]
  viability: 93%

## Cc1cc(C2(c3ccc(O)c(C)c3)CCCCC2)ccc1O [Compound 54048]
[1]
  inhibition at 5 µg/mL: 68%
[2]
  viability: 79%

## Cc1cc(C(c2ccc(Cl)cc2)c2cc(C)c(O)c(C)c2)cc(C)c1O [Compound 54042]
[1]
  inhibition at 5 µg/mL: 28%
[2]
  viability: 102%

## CCC(C)(c1cc(C)c(O)c(C)c1)c1cc(C)c(O)c(C)c1 [Compound 54056]
[1]
  inhibition at 5 µg/mL: 84%
[2]
  viability: 87%

## CC(C)(C)c1cc2c(cc1O)C(C)(C)c1cc(O)c(C(C)(C)C)cc1O2 [Compound 53433]
[1]
  inhibition at 5 µg/mL: 97%
[2]
  viability: 26%

## Cc1cc(O)c(C(C)C)cc1C(c1ccccc1)c1cc(C(C)C)c(O)cc1C [Compound 54007]
[1]
  inhibition at 5 µg/mL: 95%
[2]
  viability: 26%

## Cc1cc(C(c2ccc(C(C)C)cc2)c2cc(C)c(O)c(C)c2)cc(C)c1O [Compound 54114]
[1]
  inhibition at 5 µg/mL: 65%
[2]
  viability: 96%
